Test [1] has as its system bacterial germs known to cause body odor. Kind of test: inhibition yard test, both germs tested. The note with it: agent within the deodorant emulsion. The format is cell-based, Staphylococcus epidermidis, Staphylococcus hominis. The source says:
The inhibition yard test (or agar diffusion test) is used to investigate the growth-inhibiting effect of substances or mixtures of substances on the most important bacterial germs known to cause body odor. For this purpose, the pathogen-containing material is spread out on a culture medium (usually on an agar layer within a Petri dish). Filter paper discs impregnated with the mixture of active substances to be tested or with a control without an active substance are placed on the bacterial layer so that the active substances can penetrate the material and spread there. If the test substance has an antimicrobial effect, clearly visible circles, so-called inhibition yards, form around the filter paper discs due to the inhibition of the pathogen growth. These can be measured in mm diameter.
An inhibition yard test was performed with deodorant emulsions containing the following potential or actual bacterial growth inhibiting additives (the amounts are given in weight %)

In test [2] the test system is four bacteria that cause body odor. Description: membrane test, statements in text for all tested species. The settings on record: 14 h, agent or formulation in deodorant emulsion. The format is cell-based, Staphylococcus, Corynebacterium and Anaerococcus species.

Here are results for 2 compounds from patent US20210093521A1, “ANTIBACTERIAL ACTIVITY BY MG COMPLEX IN DEODORANT EMULSION FOR AEROSOLS, DEODORANT INCLUDING THE SAME AND USE OF THE DEODORANT” (Henkel AG & Co. KGaA, priority 2019, published 2021).

For the compound `CCCCCCC(CCCC)C(=O)O` (stereo not drawn) [Isocarb, 2-butyloctanioc acid], the “antibacterial effect in the deodorant emulsion (inhibition zone)” value in test [1] was “no effect”.

As for Benzalkonium chloride, in test [1], the “antibacterial effect in the deodorant emulsion (inhibition zone)” value is given as “good effect even in small quantities”. In addition, the “antibacterial effectiveness in the membrane test” value in test [2] is “good effect”.
